Literature values, collected in patent publication US12303597B2, “Naloxone formulations for sublingual and/or buccal administration” (Pharmaceutical Productions, Inc., priority 2019, dated 2025).
Where a name gives a salt, the structure may show the parent alone. Read-outs that look alike come from different tables or passages of the source.

**Q.** With `C=CCN1CC[C@]23c4c5ccc(O)c4O[C@H]2C(=O)CC[C@@]3(O)[C@H]1C5` [Naloxone hydrochloride] as the molecule, how does the solubility in water (hydrochloride) read?
**A.** Its solubility in water is “soluble in water”.

**Q.** With `C=CCN1CC[C@]23c4c5ccc(O)c4O[C@H]2C(=O)CC[C@@]3(O)[C@H]1C5` [naloxone base, 17-allyl-4,5α-epoxy-3,14-dihydroxymorphinan-6-one] as the molecule, how does the solubility in water read?
**A.** Its solubility in water is “insoluble in water”.
